Test results published in US20240188613A1, “SWEETENER COMPOSITIONS COMPRISING MOGROSIDES AND USES THEREOF” (Firmenich Incorporated, priority 2021, published 2024).

Experiments:
Type in all cases: in vivo, human
[1] = Additional sensory testing for lemon-flavored (lemon-lime) beverage (panel of flavorists); conditions: 600 ppm mogrosides, 0 to 10 scale, letter in parentheses = Duncan's test group
Protocol: A panel of flavorists at three locations evaluated lemon-lime beverage various mogrosides at a concentration of 600 ppm mogrosides for in-mouth attributes (peak sweetness, upfront sweetness, bitterness, and mouthfeel/thickness) and aftertaste attributes (sweet taste linger), on a 0 to 10 scale. The in-mouth attributes were evaluated while holding the sample in the mouth, while the aftertaste attributes were evaluated after expectoration.

[2] = Sensory testing for lemon-lime carbonated soft drink (panel of volunteers)
Protocol: (§1) A panel of volunteers evaluated isomogroside IVE for in-mouth attributes (sweetness, delayed sweetness, sourness, bitterness, global flavor intensity, thickness/body, and astringence) and aftertaste (AT) attribtues (lingering sweetness, overall off-taste intensity, licorice off-tast, bitterness off-taste, and mouth coating) on a 10-point scale. Two replicate sessions were conducted, with a 20 minute break between sessions. There was a 90 second delay between samples within a session. Panelists evaluated all samples in a first session and evaluated the samples again a second time in a second session. Control samples of Rebaudioside M (Reb M) were evaluated during all sessions as a control. Mogroside V was also evaluated and sensory data for mogroside V is provided.
(§2) Data analysis was performed using 2-way analysis of variance (ANOVA) with interaction using Tukey's HSD test. The data was normalized for each attribute according to average scores for Reb M.
A panel of volunteers evaluated the isomogroside IVE-containing lemon-lime carbonated soft drink for in-mouth attributes and aftertaste attributes according to the methods described in Example 1 above.

[3] = Additional sensory testing for vanilla milk (panel of flavorists); conditions: 400 ppm mogrosides, 0 to 10 scale, letter in parentheses = Duncan's test group
Protocol: A panel of flavorists at three locations evaluated vanilla milk containing various mogrosides at a concentration of 400 ppm mogrosides for in-mouth attributes (peak sweetness, upfront sweetness, bitterness, and mouthfeel/thickness) and aftertaste attributes (sweet taste linger), on a 0 to 10 scale. The in-mouth attributes were evaluated while holding the sample in the mouth, while the aftertaste attributes were evaluated after expectoration. The data was analyzed using Duncan's new multiple range test and the scores are provided in the data below in parentheses.

[4] = Sensory testing for apple drink (panel of volunteers); conditions: for Bitterness / Delayed Sweetness / Global Flavor Intensity / Sweetness / Thickness/Body: in-mouth, normalized to Reb M
Protocol: as §1, §2

[5] = Expert panelists' comparison of mogrosides with Stevia; conditions: "Examples 4 and 5", in words
[6] = Sensory testing for sparkling orange beverage (panel of volunteers)
Protocol: as §1, §2
A panel of volunteers evaluated a sparkling orange beverage containing isomogroside IVE for in-mouth attributes and aftertaste attributes according to the methods described in Example 1 above.

[7] = Sensory testing for vanilla milk (panel of volunteers); conditions: for Licorice Aftertaste / Lingering Sweetness / Mouth Coating / Overall Off-Taste: aftertaste
Protocol: as §1, §2
A panel of volunteers evaluated vanilla milk containing isomogroside IVE for in-mouth attributes and aftertaste attributes according to the methods described in Example 1 above.

[8] = 600 ppm (mogroside V 600 mg [sic]), aftertaste, 10-point scale, normalized
[9] = 600 ppm (mogroside V 600 mg [sic]), in-mouth, 10-point scale, normalized
[10] = 250 ppm (mogroside V 250 mg [sic]), aftertaste, 10-point scale
[11] = 250 ppm (mogroside V 250 mg [sic]), 10-point scale
[12] = 500 ppm (mogroside V 500 mg [sic]), aftertaste, 10-point scale
[13] = 500 ppm (mogroside V 500 mg [sic]), 10-point scale
[14] = same concentration of Reb M, in words
[15] = 250 ppm (mogroside V 250 mg [sic]), aftertaste, 10-point scale, normalized
[16] = 250 ppm (mogroside V 250 mg [sic]), in-mouth, 10-point scale, normalized
[17] = 200 ppm (mogroside V 200 mg [sic]), 10-point scale, normalized
[18] = 200 ppm (mogroside V 200 mg [sic]), in-mouth, 10-point scale, normalized
[19] = 400 ppm (mogroside V 400 mg [sic]), 10-point scale, normalized
[20] = 400 ppm (mogroside V 400 mg [sic]), in-mouth, 10-point scale, normalized

Question: Which “Sweet Linger” value ([1]; aftertaste after expectoration) does the source give for `C[C@H](CC[C@@H](O[C@@H]1O[C@H](CO)[C@@H](O)[C@H](O)[C@H]1O[C@@H]1O[C@H](CO)[C@@H](O)[C@H](O)[C@H]1O)C(C)(C)O)[C@@]1(C)CC[C@@]2(C)[C@@H]3CC=C4[C@@H](CC[C@H](O[C@@H]5O[C@H](CO)[C@@H](O[C@@H]6O[C@H](CO)[C@@H](O)[C@H](O)[C@H]6O)[C@H](O)[C@H]5O)C4(C)C)[C@]3(C)[C@H](O)C[C@@]21C` [isomogroside IVE] here?
Answer: 3.429 (c)

Question: And the Bitterness ([1]; in-mouth)?
Answer: 1.857 (a)

Question: And the Mouthfeel/Thickness ([1]; in-mouth)?
Answer: 2.714 (b)

Question: What about the “Peak Sweetness” value ([1]; in-mouth) of the same molecule?
Answer: 4.857 (c)

Question: And the “Upfront Sweetness” value ([1]; in-mouth)?
Answer: 3.571 (b)

Question: And the “Bitterness Aftertaste” value [2, 8]?
Answer: 1.8

Question: And the “Licorice Aftertaste” value [2, 8]?
Answer: 2.9

Question: And the “Lingering Sweetness” value [2, 8]?
Answer: 4.2

Question: What about the “Overall Off-Taste” value [2, 8] of the same molecule?
Answer: 3.8

Question: What about the Bitterness [2, 9] of the same molecule?
Answer: 2.2

Question: What about the “Delayed Sweetness” value [2, 9] of the same molecule?
Answer: 3.5

Question: And the “Global Flavor Intensity” value [2, 9]?
Answer: 5.0

Question: What about the Sweetness [2, 9] of the same molecule?
Answer: 5.0

Question: And the “Sweetness compared with Reb M” value ([2]; 600 ppm, in words)?
Answer: overall lower sweetness

Question: What about the “Global flavor intensity compared with mogroside V” value ([2]; in words) of the same molecule?
Answer: higher global flavor intensity

Question: What about the “Sweetness compared with mogroside V” value ([2]; in words) of the same molecule?
Answer: comparable sweetness

Question: What about the “Sweet Linger” value ([3]; aftertaste after expectoration) of the same molecule?
Answer: 4.563 (b)

Question: And the Bitterness ([3]; in-mouth)?
Answer: 1.313 (ab)

Question: What about the Mouthfeel/Thickness ([3]; in-mouth) of the same molecule?
Answer: 4.125 (b)

Question: What about the “Peak Sweetness” value ([3]; in-mouth) of the same molecule?
Answer: 5.938 (c)

Question: What about the “Upfront Sweetness” value ([3]; in-mouth) of the same molecule?
Answer: 5.125 (b)

Question: And the “Bitterness Aftertaste” value [4, 10]?
Answer: 1.5

Question: What about the “Licorice Aftertaste” value [4, 10] of the same molecule?
Answer: 2.4

Question: What about the “Lingering Sweetness” value [4, 10] of the same molecule?
Answer: 3.0

Question: And the “Overall Off-Taste” value [4, 10]?
Answer: 3.2

Question: What about the Bitterness [4, 11] of the same molecule?
Answer: 1.4

Question: And the “Delayed Sweetness” value [4, 11]?
Answer: 2.1

Question: And the “Global Flavor Intensity” value [4, 11]?
Answer: 3.3

Question: And the Sweetness [4, 11]?
Answer: 3.9

Question: And the Thickness/Body [4, 11]?
Answer: 1.6

Question: And the “Licorice Aftertaste” value [4, 12]?
Answer: 2.2

Question: What about the “Lingering Sweetness” value [4, 12] of the same molecule?
Answer: 3.4

Question: And the “Mouth Coating” value [4, 12]?
Answer: 2.0

Question: What about the “Overall Off-Taste” value [4, 12] of the same molecule?
Answer: 3.1

Question: What about the Bitterness [4, 13] of the same molecule?
Answer: 1.9

Question: And the “Delayed Sweetness” value [4, 13]?
Answer: 2.6

Question: And the “Global Flavor Intensity” value [4, 13]?
Answer: 3.5

Question: And the Sweetness [4, 13]?
Answer: 4.5

Question: What about the Thickness/Body [4, 13] of the same molecule?
Answer: 1.6

Question: And the “Overall off-taste compared with mogroside V” value ([4]; aftertaste, in words)?
Answer: lower overall off-taste

Question: What about the “Lingering sweetness aftertaste compared with Reb M” value ([4]; at both 250 ppm and 500 ppm, in words) of the same molecule?
Answer: significantly improved

Question: What about the “Bitterness compared with mogroside V” value ([4]; in words) of the same molecule?
Answer: lower bitterness

Question: What about the “Global flavor intensity compared with mogroside V” value ([4]; in words) of the same molecule?
Answer: higher

Question: And the “Sweetness compared with mogroside V” value ([4]; in words)?
Answer: higher sweetness

Question: And the “Thickness/body compared with mogroside V” value ([4]; in words)?
Answer: higher thickness/body

Question: And the “Global flavor intensity compared with Reb M” value [4, 14]?
Answer: lower global flavor intensity

Question: And the “Sweetness compared with Reb M” value [4, 14]?
Answer: somewhat less sweet

Question: What about the “Bitter aftertaste compared with Stevia” value [5] of the same molecule?
Answer: lower bitter aftertaste

Question: What about the “Licorice aftertaste compared with Stevia” value [5] of the same molecule?
Answer: lower licorice aftertaste

Question: What about the “Mouthfeel compared with Stevia” value [5] of the same molecule?
Answer: better mouthfeel

Question: What about the “Licorice Aftertaste” value [6, 15] of the same molecule?
Answer: 2.1

Question: And the “Lingering Sweetness” value [6, 15]?
Answer: 3.9

Question: And the “Mouth Coating” value [6, 15]?
Answer: 1.9

Question: What about the “Overall Off-Taste” value [6, 15] of the same molecule?
Answer: 3.3

Question: And the “Delayed Sweetness” value [6, 16]?
Answer: 3.5

Question: And the Sweetness [6, 16]?
Answer: 4.9

Question: And the “Delayed sweetness compared with Reb M” value ([6]; 250 ppm, in words)?
Answer: slightly increased delayed sweetness

Question: What about the “Sweetness compared with Reb M” value ([6]; 250 ppm, in words) of the same molecule?
Answer: overall lower sweetness

Question: And the “Licorice Aftertaste” value [7, 17]?
Answer: 0.8

Question: And the “Lingering Sweetness” value [7, 17]?
Answer: 2.6

Question: And the “Mouth Coating” value [7, 17]?
Answer: 2.9

Question: What about the “Overall Off-Taste” value [7, 17] of the same molecule?
Answer: 2.1

Question: And the Astringence [7, 18]?
Answer: 0.5

Question: And the “Delayed Sweetness” value [7, 18]?
Answer: 1.7

Question: And the Fattiness [7, 18]?
Answer: 2.9

Question: What about the Sourness [7, 18] of the same molecule?
Answer: 0.5

Question: And the Sweetness [7, 18]?
Answer: 5.1

Question: What about the “Licorice Aftertaste” value [7, 19] of the same molecule?
Answer: 1.4

Question: And the “Lingering Sweetness” value [7, 19]?
Answer: 3.7

Question: What about the “Mouth Coating” value [7, 19] of the same molecule?
Answer: 0.9

Question: What about the “Overall Off-Taste” value [7, 19] of the same molecule?
Answer: 2.0

Question: What about the Astringence [7, 20] of the same molecule?
Answer: 0.7

Question: And the Bitterness [7, 20]?
Answer: 1.0

Question: What about the “Delayed Sweetness” value [7, 20] of the same molecule?
Answer: 2.5

Question: What about the Fattiness [7, 20] of the same molecule?
Answer: 3.9

Question: And the “Global Flavor Intensity” value [7, 20]?
Answer: 4.6

Question: What about the Sourness [7, 20] of the same molecule?
Answer: 0.8

Question: What about the Sweetness [7, 20] of the same molecule?
Answer: 6.8

Question: What about the “Bitterness compared with mogroside V” value ([7]; at 400 ppm, in words) of the same molecule?
Answer: lower bitterness

Question: And the “Fattiness compared with mogroside V” value ([7]; at 400 ppm, in words)?
Answer: higher

Question: And the “Global flavor intensity compared with mogroside V” value ([7]; at 400 ppm, in words)?
Answer: higher

Question: And the “Sweetness compared with Reb M” value ([7]; at both 200 ppm and 400 ppm, in words)?
Answer: increased sweetness

Question: And the “Sweetness compared with mogroside V” value ([7]; in words)?
Answer: higher sweetness
